These results are taken from ChEMBL document CHEMBL3352618, “Discovery of novel pyrimidine and malonamide derivatives as TGR5 agonists” (Bioorg Med Chem Lett, 2014).

Holding throughout (type): ADME, organism-based
A short description of series [1]: AUC (0 to 7 hrs) in male ICR mouse at 5 mg/kg, iv. Also on record: time < 7 hr, dose 5 mg/kg, route intravenous. The note with it: plasma.
A short description of series [2]: Half life in male ICR mouse at 5 mg/kg, iv. The note with it: in vivo. Also on record: dose 5 mg/kg, route intravenous.
The test system of series [3] is Mus musculus. In words: Volume of distribution at steady state in male ICR mouse at 5 mg/kg, iv. Also on record: dose 5 mg/kg, route intravenous. The note with it: in vivo.
Series [4] deals with Mus musculus. In words: Clearance in male ICR mouse at 5 mg/kg, iv. Also on record: dose 5 mg/kg, route intravenous. The note with it: in vivo.
Series [5] deals with Mus musculus. In words: Mean residence time (last) in male ICR mouse at 5 mg/kg, iv. Also on record: dose 5 mg/kg, route intravenous. The note with it: in vivo.
Series [6] is described as follows: AUC (0 to 7 hrs) in male ICR mouse at 10 mg/kg, po. Also on record: time < 7 hr, dose 10 mg/kg, route oral. The note with it: plasma.
Series [7] in a line: Cmax in male ICR mouse at 10 mg/kg, po. Also on record: dose 10 mg/kg, route oral. The note with it: in vivo.
Series [8] in a line: Tmax in male ICR mouse at 10 mg/kg, po. Also noted: dose 10 mg/kg, route oral. The note with it: in vivo.
Series [9] can be described thus: Half life in male ICR mouse at 10 mg/kg, po. Also noted: dose 10 mg/kg, route oral. The note with it: in vivo.
Series [10] relates to Mus musculus. In words: Volume of distribution at steady state in male ICR mouse at 10 mg/kg, po. Also noted: dose 10 mg/kg, route oral. The note with it: in vivo.
Series [11] in a line: Clearance in male ICR mouse at 10 mg/kg, po. Also noted: dose 10 mg/kg, route oral. The note with it: in vivo.
A short description of series [12]: Mean residence time (last) in male ICR mouse at 10 mg/kg, po. Also on record: dose 10 mg/kg, route oral. The note with it: in vivo.
Series [13] can be described thus: Oral bioavailability in male ICR mouse at 10 mg/kg. The note with it: in vivo.

In general, AUC(0-t) refers to the area under the concentration-time curve up to a stated or last time point. Read a low AUC(0-t) as low exposure. As usually defined, the half-life is how long it takes for the measured level to halve. Low values mean rapid decline, high ones slow decline. Usually MRT stands for the average time that molecules of a dose stay in the body. As a reminder, the Cmax is the highest concentration seen after dosing. In general, Tmax refers to the time from dosing to the highest level. The term CL/F denotes the apparent clearance, not corrected for the fraction that reaches the circulation. As a reminder, the MRT last is the average time that molecules of a dose stay in the body. Usually bioavailability stands for the share of a dose that reaches the circulation, judged against a reference dose that is usually intravenous. Regarding `CN1CCN(C(=O)c2cnc(O)nc2Oc2cc(Cl)ccc2Cl)c2ccccc21`, the AUC(0-t) at 7 h is 1430 ng·h/mL in series [1] and 397 ng·h/mL in series [6]. In addition, the figures for the half-life in [2] and in [9] were 1.45 h and 2.83 h, respectively. Moreover, the results for the Vdss in [3] and in series [10] were 7.31 L/kg and 90.5 L/kg, respectively. The same molecule had a CL in series [4] of 58.2 mL/min/kg. This molecule had an MRT in [5] of 0.2 h. Moreover, the Cmax in series [7] was determined as 236 ng/mL. Besides, in series [8], the Tmax is 1 h. The same molecule had a CL/F in series [11] of 369 mL/min/kg. Besides, in [12], the MRT last worked out at 1.97 h. The same molecule had a bioavailability in series [13] of 13.9%.
